System: BxPC-3 cells
Assay: Resazurin-based cell viability assay, pancreatic cancer cell line
Conditions: 72 hours, combination equimolar, 100% = no drug, 0% = Paclitaxel
Method: To determine whether Risperidone alone, or in combination with CLA could inhibit cell growth of cells taken from a pancreatic cancer cell line overexpressing HSD10, a resazurin-based cell viability assay was conducted on Bx-PC3 cells.
BxPC-3 cells are from a cell line derived from a human pancreatic adenocarcinoma and are known to overexpress HSD10. BxPC-3 cells were seeded at a density of 4,000 cells per well in a 384 well plate, and incubated at 37° C., 5% CO2 for 24 hours in standard growth media (RPMI nutrient media, 5% heat-inactivated Fetal Calf Serum, 2 mM L-Glutamine). The media was then removed by pipette and replaced with 50 μL BxPC-3 treatment media comprising 125 μM fatty acid-free BSA, 2 mM L-Glutamine and one of the following drug treatments: 0.1 μM, 2 μM, or 50 μM Risperidone; 0.1 μM, 2 μM, or 50 μM CLA; or 0.1 μM, 2 μM, or 50 μM of Risperidone and CLA (in equimolar amounts). After incubation in the drug treatment for 72 hours at 37° C., 5% CO2, viable cell number was determined using a resazurin-based cell viability assay (PRESTOBLUE®; Invitrogen, Carlsbad, Calif.). To each well, 7 μL of PRESTOBLUE® reagent was added and the plates incubated for 60 minutes at 37° C., 5% CO2. After incubation, the fluorescence intensity of each well was determined using a microplate reader by excitation and 570 nm and recording emission at 600 nm. The percentage of viable cell number was calculated by normalizing the experimental fluorescence intensity, where 100% is set to cells receiving no drug treatment (cells metabolizing at optimal rate), and 0% is set to readings from cells treated with Paclitaxel (cells not metabolizing at all due to their destruction by anti-cancer drug). A value under 50% could be considered a useful indication of potential efficacy.

**Q.** What does the source list for `CCCCCC/C=C/C=C\CCCCCCCC(=O)O` [CLA, 9Z, 11E conjugated Linoleic acid]?
**A.** percentage of viable cell number (0.1 uM): 103%; percentage of viable cell number (2 uM): 71%; percentage of viable cell number (50 uM): 119%

From patent US10111877B2, “Modulators of androgen synthesis” (Tangent Reprofiling Limited, priority 2012, dated 2018)
